The values that follow come from patent US11746103B2, “ALK-5 inhibitors and uses thereof” (Sumitomo Pharma Oncology, Inc., priority 2020, dated 2023).

Assay [1] deals with TGF-beta induced SMAD signaling. The experiment in a line: RDSR (RD SMAD reporter) Cellular Reporter Assay. The format is cell-based. The following applies: Homo sapiens; 200 pg/ml rhTGF-beta1, 24 h; read-out: RD-SMAD reporter activity. From the text:
TGF-β signaling is triggered when the activated TGF-β homodimer binds to the TGF-β receptor 2, which in turn leads to the recruitment and phosphorylation of TGF-β receptor 1 (ALK5). Activated TGF-β receptor 1 phosphorylates the signal transduction molecules SMAD2 and SMAD3. These bind to common mediator SMAD4 and translocate to the nucleus where they bind to short conserved DNA sequences called the SMAD binding element and induce the transcription of various target genes. […] Certain example compounds were also or alternatively assayed using the RDSR Cellular Reporter Assay. Overview and Design: The RD SMAD reporter (RDSR) cell line was generated by stabily integrating the SMAD cellular reporter plasmid (Promega, pGL4.48[luc2P/SBE/Hygro]) into the human rhabdomyosarcoma cell line RD (ATCC, CCL-136). Once SMAD signaling is triggered, with, for example, the addition of TGF-β 1, receptor activated SMADs bind the SMAD binding elements (SBEs) leading to the expression of intracellular luciferase. To determine the potency of compounds at inhibiting TGF-beta induced SMAD signaling, the RDSR reporter system was utilized. The rhabdomyosarcoma line RD (ATCC, CCL-136) was transfected with a SMAD reporter vector (Promega, E3671) and a polyclonal stable cell line was selected using hygromycin B. The transfected vector contains three copies of a SMAD-binding element (SBE) that drive transcription of the luciferase reporter gene luc2P (Photinus pyralis). luc2P is a synthetically-derived luciferase sequence with humanized codon optimization that is designed for high expression and reduced anomalous transcription. The luc2P gene contains hPEST, a protein destabilization sequence, which allows luc2P protein levels to respond more quickly than those of luc2 to induction of transcription. The intracellular luciferase is quantified by the addition of equal volume (100 μl) of ONE-GLO substrate (Promega, E6120) and read within ten minutes on the Envision plate reader. The stable RDSR cell line was tested by evaluating the response to human TGF-β1 (R&D Systems, 7754-BH-005) as well as human myostatin (R&D Systems, 788-G8-010/CF) in a concentration dependent manner after twenty-four hours of stimulation. […] For compound evaluation, the tool drugs Galunisertib and Vactosertib were included as positive controls. The tool drugs and the compounds of the invention being tested were all incubated with cells for one hour at 37° C. before stimulation with 200 pg/ml rhTGF-beta1 for twenty-four hours. The activity of the reporter was determined with the addition of ONE-GLO (Promega) substrate and luminescence counts collected on the Envision plate reader (Perkin Elmer). […] The activity of compounds of the invention as determined using this method are reported in the third column of Table 1, below.

The target in assay [2] is ALK-5 (Homo sapiens (Human), UniProt P36897). Description: LanthaScreen Eu Kinase Binding Assay, ALK-5. The following applies: for IC50: read-out: Kinase Inhibition: ALK5 IC50. On the procedure: Activity determinations and selectivity were conducted by Thermo Fisher Scientific “SelectScreen™ Biochemical Kinase Profiling Service” using their “LanthaScreen™ Eu Kinase Binding Assay Screening” (www.thermofisher.com/selectscreen). Binding of an Alexa Fluor™ conjugate or “tracer” to a kinase is detected by addition of a Eu-labeled anti-tag antibody. Binding of the tracer and antibody to a kinase results in a high degree of FRET, whereas displacement of the tracer with a kinase inhibitor results in a loss of FRET. This assay is carried out by mixing the compound tested with the reagents and reading, no development step is required. Life Technologies' Kinase Tracers are based on ATP-competitive kinase inhibitors, making them suitable for detection of any compounds that bind to the ATP site. Inhibitors that bind the ATP site include both Type I kinase inhibitors, which bind solely to the ATP site, and Type II inhibitors (e.g., Gleevec®/Imatinib, Sorafenib, BIRB-796), which bind to both the ATP site and a second site often referred to as the allosteric site. […] For 10 point titrations, 3-fold serial dilutions are conducted from the starting concentration (see Table 2 below). [table] All Kinase/Antibody Mixtures are diluted to a 2× working concentration in the specified kinase buffer. The 4× AlexaFluor labeled Tracer is prepared in Kinase Buffer. Bar-coded, low volume, white 384-well plate (Greiner Cat. #784207) […] 2. 3.84 μL—Kinase Buffer […] 4. 4.0 μL—4× Tracer 5. 30-second plate shake 6. 60-minute incubation at room temperature 7. […] The LanthaScreen Eu Kinase Binding Assay data is analyzed using the equations in Table 3 for each set of data points. [table] Data generated were plotted using the graphing software XLfit from IDBS. The dose response curve is curve fit to model number 205.
Sequence of ALK-5 (P36897 34-503): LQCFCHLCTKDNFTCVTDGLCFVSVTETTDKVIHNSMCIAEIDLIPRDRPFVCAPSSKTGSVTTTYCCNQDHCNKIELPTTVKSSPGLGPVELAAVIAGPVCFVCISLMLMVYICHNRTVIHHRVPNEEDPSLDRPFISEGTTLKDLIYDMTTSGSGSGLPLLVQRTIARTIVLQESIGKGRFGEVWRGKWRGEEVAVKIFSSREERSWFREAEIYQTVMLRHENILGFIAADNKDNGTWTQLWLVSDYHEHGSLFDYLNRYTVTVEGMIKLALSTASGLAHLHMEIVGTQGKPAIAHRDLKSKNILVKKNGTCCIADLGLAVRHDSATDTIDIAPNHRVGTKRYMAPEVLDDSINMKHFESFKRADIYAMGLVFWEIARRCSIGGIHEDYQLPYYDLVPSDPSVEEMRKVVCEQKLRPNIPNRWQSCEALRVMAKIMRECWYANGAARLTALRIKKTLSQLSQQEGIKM
A general note: In TR-FRET formats the signal depends on donor and acceptor labels being close together.

`Cc1cccc2c(Nc3ccnc(Nc4ccc(CN5CCN(C)CC5)cc4)n3)cnnc12` [EX-26, N4-(8-methylcinnolin-4-yl)-N2-(4-((4-methylpiperazin-1-yl)methyl)phenyl)pyrimidine-2,4-diamine]: the IC50 in assay [1] was below 100 nM; in assay [2], below 10 nM. The “Kinase Selectivity: ALK2 IC50/ ALK5 IC50” value in assay [2] was “(++) (10<ALK2/ALK5<100=[++])”.
For `Cc1cccc2c(Nc3ccnc(Nc4cc(F)cc(CN5CCN(C)CC5)c4)n3)cnnc12` [EX-42, N2-(3-fluoro-5-((4-methylpiperazin-1-yl)methyl)phenyl)-N4-(8-methylcinnolin-4-yl)pyrimidine-2,4-diamine], in that order: 100 to 1000 nM, below 10 nM and “(+) (≤10=[+])”.
For `Cc1c(F)ccc2c(Nc3ccnc(Nc4ccc(N5CCOCC5)cc4)n3)cnnc12` [EX-41, N4-(7-fluoro-8-methylcinnolin-4-yl)-N2-(4-morpholinophenyl)pyrimidine-2,4-diamine], in that order: below 100 nM, below 10 nM and “(++) (10<ALK2/ALK5<100=[++])”.
Taken in the same sequence, the figures for `Cc1cccc2c(Nc3ccnc(Nc4cccc(CN5CCN(C)CC5)c4)n3)cnnc12` [EX-04, N4-(8-methyl-cinnolin-4-yl)-N2-(3-((4-methyl-piperazin-1-yl)methyl)phenyl)pyrimidine-2,4-diamine] were below 100 nM, below 10 nM and “(+) (≤10=[+])”.
In the case of `Cc1cccc2c(Nc3ccnc(Nc4ccc(N5CCN(C)CC5)c(Cl)c4)n3)cnnc12` [EX-34, N2-(3-chloro-4-(4-methyl-piperazin-1-yl)-phenyl)-N4-(8-methylcinnolin-4-yl)pyrimidine-2,4-diamine], the IC50 in assay [1] is below 100 nM. Besides, in assay [2], the “Kinase Selectivity: ALK2 IC50/ ALK5 IC50” value is “(++) (10<ALK2/ALK5<100=[++])” and the IC50 was below 10 nM.
On to `Cc1cccc2c(Nc3ccnc(Nc4ccc(N5CCN(C)CC5)cc4F)n3)cnnc12` [EX-21, N2-(2-fluoro-4-(4-methyl-piperazin-1-yl)phenyl)-N4-(8-methyl-cinnolin-4-yl)-pyrimidine-2,4-diamine], for which the IC50 in assay [1] fell in the range of 100 to 1000 nM. Further, in assay [2], the “Kinase Selectivity: ALK2 IC50/ ALK5 IC50” value is “(++) (10<ALK2/ALK5<100=[++])” and the IC50 lay within 10 to 100 nM.
Taken in the same sequence, the figures for `Cc1cccc2c(Nc3ccnc(Nc4ccc(C(C)(C)C)cc4)n3)cnnc12` [EX-54, N2-(4-(tert-butyl)phenyl)-N4-(8-methylcinnolin-4-yl)pyrimidine-2,4-diamine] were 100 to 1000 nM, “(++) (10<ALK2/ALK5<100=[++])” and 10 to 100 nM.
Taken in the same sequence, the figures for `Cc1c(F)ccc2c(Nc3ccnc(Nc4cccc(N5CCOCC5)c4)n3)cnnc12` [EX-40, N4-(7-fluoro-8-methylcinnolin-4-yl)-N2-(3-morpholinophenyl)pyrimidine-2,4-diamine] were below 100 nM, “(++) (10<ALK2/ALK5<100=[++])” and below 10 nM.
For `Cc1cccc2c(Nc3ccnc(Nc4cc(F)cc(CC5CCN(C)CC5)c4)n3)cnnc12` [EX-43, N2-(3-fluoro-5-((1-methylpiperidin-4-yl)methyl)phenyl)-N4-(8-methylcinnolin-4-yl)pyrimidine-2,4-diamine], in that order: 100 to 1000 nM, “(+) (≤10=[+])” and below 10 nM.
Turning to `Cc1ccc(F)c2c(Nc3ccnc(Nc4ccc(N5CCN(C)CC5)cc4)n3)cnnc12` [EX-24, N4-(5-fluoro-8-methylcinnolin-4-yl)-N2-(4-(4-methylpiperazin-1-yl)phenyl)pyrimidine-2,4-diamine], the values for the IC50 in assay [1] and in assay [2] were below 100 nM and below 10 nM, respectively. In addition, the “Kinase Selectivity: ALK2 IC50/ ALK5 IC50” value in assay [2] was “(++) (10<ALK2/ALK5<100=[++])”.
